# Legend:
# [1] = system: ZSF1 obese rats; experiment: Oral glucose tolerance test (OGTT) and fasting glucose in ZSF1 rats at week 10; assay type: in vivo, rat
# Description: Male ZSF1 rats (body weight 400-430 grams (lean control) and 500-605 grams (obese) at baseline) were used for this study. All animals were housed in a room under controlled conditions of temperature (72±8° F.), relative humidity of 30-70% and a 12-hour light-dark cycle (lights on at 6:00 AM and off at 6:00 PM) at a fully AAALAC accredited, USDA registered and OLAW assured laboratory animal research facility. All animals were allowed free access to rodent chow (Purina 5008+/−test articles) and water (+/−enalapril).
# Blood and 24-hour urine samples were obtained from all animals at day 0 (15 weeks of age; prior to the initiation of enalapril treatment). Animals in Groups 3, 7, 8 and 9 were placed on drinking water containing enalapril and kept on Purina 5008 rodent chow (C13000). Animals in Group 1, 2, 4, 5 and 6 were kept on Purina 5008 rodent chow and drinking water. Ten days after the initiation of enalapril treatment, blood and 24-hour urine samples were collected from all animals. After day 10 blood and urine collections, animals in Groups 4, 5 and 6 received Compound I at 1, 3 and 10 mg/kg/day, respectively for 11 weeks. In addition to enalapril treatment, animals in Groups 7, 8 and 9 received Compound I at 1, 3 and 10 mg/kg/day, respectively for an additional 11 weeks.
# 10 weeks after the initiation of Compound I treatment, animals (27 weeks of age) were fasted for 18 hours. Serum samples were collected for the measurement of fasting insulin levels. Serum insulin levels were determined using the Rat Insulin ELISA kit (Cat #ELR-Insulin, RayBiotech, Inc.)
# For OGTT, animals were given glucose solution (50% Dextrose) at 2 g/kg via oral gavage. Blood samples were collected prior to oral glucose administration (0 minute) and 30, 60, 90, 120 and 180 minutes after administration. Blood glucose levels were measured using a standard blood glucose monitoring system (AlphaTRAK). The blood glucose reading at time 0 (prior to glucose administration) corresponds to the fasting glucose measurement.
# The data are expressed as mean±SEM. […] One-tailed tests were used for comparison of variables. Statistical significance is indicated by P values less than 0.05.
# [2] = system: obese/high fat diet C57Bl/6J mice; experiment: Diet induced obesity (DIO) mouse model: body weight and food intake; assay type: in vivo; conditions: DIO HFD mice, approx 6 mg/kg in diet
# Text: (§1) The objective of this animal study was to evaluate the effects of Compound I in the mouse diet induced obesity (DIO) model. Assessments included body weight, food intake, oral glucose tolerance test (OGTT) and fasting plasma biomarkers of metabolic control.
# (§2) Male C57Bl/6J mice with baseline body weights of 25.0-29.0 grams (lean controls) and 31.5-45.0 grams (obese/high fat diet treated) respectively, were used for this study. The lean mice (n=8) were maintained on a standard chow diet. The obese mice were given 60% high fat diet (HFD) starting at 6 weeks of age. All animals were allowed free access to drinking water and chow. The study was begun when the mice were 12 weeks of age and concluded after 4 weeks (16 weeks of age). The obese control group (n=8 mice) was maintained on HFD. The Compound I group (n=8 obese mice) was treated with HFD containing 90 mg Compound I/kg (an approximate dose of 6 mg/kg). Body weights were determined twice weekly and food intake was measured daily for 28 days. An OGTT was performed on each animal at day 28 or 29 and the animals were sacrificed on the following day. On the terminal day, 3 hour fasted blood was collected for compound concentrations and plasma biomarkers analysis including glucose, insulin and triglycerides. Organs were collected, weighed and snap frozen in liquid nitrogen for further analysis.
# [3] = system: obese/high fat diet C57Bl/6J mice; experiment: DIO mouse model: fasting plasma biomarkers and liver triglycerides; assay type: in vivo; conditions: DIO HFD mice, approx 6 mg/kg in diet
# Text: as §1, §2
smiles,measurement,setting,value
OC(CNc1nc(-c2cc(-c3ccon3)n(Cc3ccccc3F)n2)ncc1F)(C(F)(F)F)C(F)(F)F [Compound I],Fasting Blood Glucose (0 minute),[1]; Compound I 1 mpk,267 ± 38 mg/dL
same,OGTT Area Under Curve (AUC),[1]; Compound I 1 mpk,84945 ± 5344
same,OGTT Blood Glucose 120 minutes,[1]; Compound I 1 mpk,475 ± 33 mg/dL
same,OGTT Blood Glucose 180 minutes,[1]; Compound I 1 mpk,398 ± 30 mg/dL
same,Fasting Blood Glucose (0 minute),[1]; Compound I 3 mpk,202 ± 10 mg/dL
same,OGTT Area Under Curve (AUC),[1]; Compound I 3 mpk,77402 ± 3526
same,OGTT Blood Glucose 120 minutes,[1]; Compound I 3 mpk,424 ± 19 mg/dL
same,OGTT Blood Glucose 180 minutes,[1]; Compound I 3 mpk,355 ± 24 mg/dL
same,Fasting Blood Glucose (0 minute),[1]; Compound I 10 mpk,194 ± 9 mg/dL
same,OGTT Area Under Curve (AUC),[1]; Compound I 10 mpk,77090 ± 1817
same,OGTT Blood Glucose 120 minutes,[1]; Compound I 10 mpk,421 ± 11 mg/dL
same,OGTT Blood Glucose 180 minutes,[1]; Compound I 10 mpk,385 ± 14 mg/dL
same,body weight gain change vs obese controls,"[2]; Day 28, P<0.0001",−37%
same,increase in food intake vs obese controls,"[2]; Day 28, P<0.05",11%
same,cumulative food intake vs obese controls,[2]; days 12-14 and 16-28,Significant increases
same,body weight gain vs obese controls,[2]; from 0.5 weeks for the duration of the study,significant reductions
same,Fasting plasma glucose,[3]; after 4 weeks,unchanged
same,plasma insulin change vs obese controls,"[3]; after 4 weeks, P<0.01",−53%
same,plasma triglycerides change vs obese controls,"[3]; after 4 weeks, P<0.01",−30%
same,circulating and liver triglycerides,[3]; compared to obese controls,lowered

# — US11389449B2, “Treatment of metabolic syndrome with an sGC stimulator” (Cyclerion Therapeutics, Inc., priority 2017, dated 2022)
